Earlier results on one compound are cited in patent publication US20030195186A1, “Methods of treating medication-, substance-, disease-, and other medical condition-related sexual dysfunction” (priority 2002, published 2003).

For the data set the following is noted: intrathecal; spinal-cord injured male patients; case reports.

In the case of `CN(C)C(=O)Oc1cccc([N+](C)(C)C)c1` [neostigmine], the “assisting patients with anejaculation to obtain ejaculation” value is given as “being able to obtain ejaculation”.
